Results on two compounds are retold here after US20260263424A1, “Formulations of 2-Arylbenzimidazole Compounds” (Tranquis Therapeutics, Inc., priority 2022, published 2026).

Data set [1] is described as follows: Multiple dose phase 1 trial, plasma pharmacokinetics of compound 1 SDD formulation QD for 7 days. As to conditions: for AR AUC (accumulation ratio based on AUC(0-tau)) / AR Cmax (accumulation ratio): Day 7, plasma.
For data set [2], the system named is Ppargc1α (PGC-1α) expression. As to conditions: Zhang et al., Diabetes 62:1297-1307 (2013); cited from earlier work.
For data set [3] the following is noted: cited from earlier work.
Data set [4] deals with murine models of neurodegenerative diseases, including Parkinson's disease, Alzheimer's disease, and amyotrophic lateral sclerosis (ALS). To be noted: administered orally at 25 mg/kg; cited from earlier work.
For data set [5] the following is noted: WO 2021/262617; cited from earlier work.
Data set [6] is described as follows: Single ascending dose (SAD) phase 1 trial, plasma pharmacokinetics of MC, SDD and HME formulations. As to conditions: for Frel Cmax/D (relative bioavailability, geometric mean): dose normalized comparison to Regimen C: 540 mg compound 1 MC formulation; for AUC(0-last) (geometric mean): fasted, plasma.
For data set [7] the following is noted: human, in vivo.
For data set [8] the following is noted: male, human, in vivo, 120 mg, 7 days.
[9] abbreviates: Regimen I: 120 mg compound 1 SDD formulation QD, fasted.
The mark [10] stands for this setting: Regimen J: 90 mg compound 1 SDD formulation QD, fed.
Setting [11] is: Regimen K: 300 mg compound 1 SDD formulation QD, fed.

Structures are written as SMILES. Like-named read-outs stand apart in the source and are kept apart here.

As to `CC(C)(C)c1ccc(-c2nc3ccccc3[nH]2)cc1` [Compound 1, 2-(4-tert-butylphenyl)-1H-benzimidazole], the “AR AUC (accumulation ratio based on AUC(0-tau))” value in data set [1] (setting [9]) is 1.58; in data set [1] (setting [10]) it was 1.24; in data set [1] (setting [11]) it was 1.66. The “AR Cmax (accumulation ratio)” value in data set [1] (setting [9]) is 1.59; in data set [1] (setting [10]) it was 1.03; in data set [1] (setting [11]), 1.74. Moreover, in data set [1] (Regimen J: 90 mg compound 1 SDD formulation, fed, Day 1), the “maximum individual AUC(0-tau) as share of the AUC(0-tau) exposure limit” value worked out at 10.9%. Besides, the “effect on Ppargc1α (PGC-1α) expression” value in data set [2] is “activator”. Also, the “solubility under aqueous conditions” value in data set [3] is reported as “highly insoluble”. For the same compound, in data set [4], the disease severity result was “reduce disease severity”. The myeloid-mediated inflammation entry in data set [4] is “suppress myeloid-mediated inflammation”. For the same compound, the “treating systemic immune activation” value in data set [5] is recorded as “effective”. Further, in data set [6] (MC formulation, single doses of 60 and 180 mg compound 1), the “dose proportionality of Cmax, AUC(0-24) and AUC(0-inf)” value is “slightly sub-proportionally”. The “Frel Cmax/D (relative bioavailability, geometric mean)” value in data set [6] (Regimen D 180 mg compound 1 SDD formulation) is given as 218%; in data set [6] (Regimen E 180 mg compound 1 HME formulation), 124%. Also, the “AUC(0-last) (geometric mean)” value in data set [6] (Regimen D: single oral 180 mg compound 1 SDD formulation) came out at 611 ng·h/mL; in data set [6] (Regimen E: single oral 180 mg compound 1 HME formulation) it was 360 ng·h/mL. Also, in data set [6] (Regimen E 180 mg compound 1 HME formulation, comparison to Regimen D 180 mg compound 1 SDD formulation), the “Frel Cmax (relative bioavailability, geometric mean)” value worked out at 56.6%.

For `CC(C)(C)c1ccc(-c2nc3cc(O)ccc3[nH]2)cc1` [Compound 2, 2-(4-(tert-butyl)phenyl)-1H-benzo[d]imidazol-5-ol], in data set [7] (180 mg), the “dose proportionality of Cmax, AUC(0-24) and AUC(0-inf)” value is on record as “proportionally”. Further, the “Frel Cmax (relative bioavailability, geometric mean)” value in data set [7] (male, 180 mg) worked out at 64.9%. Besides, in data set [7] (male, po, 180 mg), the “T1/2 (geometric mean)” value is listed as 9.17 h and the “Tmax (median)” value was 2 h. For the same compound, in data set [7] (male, po, 270 mg), the “Cmax (geometric mean)” value is reported as 621 ng/mL and the “Tmax (median)” value worked out at 2 h. Besides, the “AR AUC (accumulation ratio based on AUC(0-tau))” value in data set [8] is 1.46.
